Measured values from patent US20100286079A1, “COMPOSITION COMPRISING COVALENT CONJUGATES OF CHITOSAN AND AN ACIDIC DRUG AND PARENTERAL ADMINISTRATION” (priority 2007, published 2010).

Legend:
[1] = Solubility in water / aqueous solution; conditions: as observed during preparation
[2] = single 200-mg oral dose, fasting subjects; cited from earlier work

solubility in aqueous medium [1]	SMILES	time of peak plasma levels after administration [2]
insoluble	CC(=O)O.CC(C)Cc1ccc(C(C)C(=O)O)cc1 (centres unmarked) [Ibuprofen ethanoate]	–
–	CC(C)Cc1ccc(C(C)C(=O)O)cc1 (centres unmarked) [Ibuprofen]	about 1 hr
